One test has as its system SK-MEL-3 (melanoma). Description: Cell proliferation measurement (Cell Titer Glo), SK-MEL-3. The format is cell-based. The settings on record: Homo sapiens, SK-MEL3, SK-MEL-3 cells, 72 h treatment, read-out: Anti-proliferation IC50 SK-MEL-3 (melanoma). Summed up: (§1)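 Cells (1000/well; 500 for HeLa) plated overnight at 37 °C, then exposed to a ≥10-point compound dilution series for 72 h at 37 °C, DMSO 0.3% final as vehicle. Viability read by CellTiter-Glo luminescence; IC50 from 4-parameter fit against untreated wells.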
Background: In ATP-based viability assays light output follows the ATP content of the culture.

The next test deals with T1, human full length PDE3A (Homo sapiens, UniProt Q14432).
T1 construct: Sf9 cells overexpressing human full length PDE3A; purchased SB Drug Discovery, UK; host or cells: Sf9 cells (cell extract)
Description: PDE3A enzyme inhibition (3H-cAMP Scintillation Proximity Assay). Type of test: biochemical. The settings on record: PDE3A cell extract from Sf9 cells, 60 min room temperature; read-out: Target IC50 PDE3A IC50. Summed up: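 Sf9 cell extract overexpressing human full-length PDE3A, diluted for linear kinetics (<70% substrate used), in 50 mM Tris/HCl pH 7.5, 8.3 mM MgCl2, 1.7 mM EDTA, 0.2% BSA. [8-3H]cAMP substrate, 60 min at room temperature, yttrium SPA bead read-out; IC50 from sigmoidal curves of % activity.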
(Scintillation proximity formats need no separation of bound from free tracer.)

Test [1] concerns HeLa cells (cervical cancer). The test can be described thus: Cell proliferation measurement (Cell Titer Glo), HeLa. The format is cell-based. Conditions: Homo sapiens, 72 h treatment, read-out: Anti-proliferation IC50 HeLa (Cervical cancer). The method in brief: as §1
In another test the target is T2, human full length PDE3B (Homo sapiens, UniProt Q13370).
T2 construct: Sf9 cells overexpressing human full length PDE3B; purchased SB Drug Discovery, UK; host or cells: Sf9 cells (cell extract)
Description: PDE3B enzyme inhibition (3H-cAMP Scintillation Proximity Assay). Type of test: biochemical. The settings on record: PDE3B cell extract from Sf9 cells, 60 min room temperature; read-out: Target IC50 PDE3B IC50. The method in brief: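 SPA with Sf9 cell extract overexpressing human full-length PDE3B, diluted for linear kinetics and <70% substrate turnover, in 50 mM Tris/HCl pH 7.5, 8.3 mM MgCl2, 1.7 mM EDTA, 0.2% BSA. [8-3H]cAMP substrate, 60 min at room temperature, stopped with yttrium SPA beads. IC50 from sigmoidal fit of % activity vs log concentration.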

T1 sequence (Q14432 whole entry): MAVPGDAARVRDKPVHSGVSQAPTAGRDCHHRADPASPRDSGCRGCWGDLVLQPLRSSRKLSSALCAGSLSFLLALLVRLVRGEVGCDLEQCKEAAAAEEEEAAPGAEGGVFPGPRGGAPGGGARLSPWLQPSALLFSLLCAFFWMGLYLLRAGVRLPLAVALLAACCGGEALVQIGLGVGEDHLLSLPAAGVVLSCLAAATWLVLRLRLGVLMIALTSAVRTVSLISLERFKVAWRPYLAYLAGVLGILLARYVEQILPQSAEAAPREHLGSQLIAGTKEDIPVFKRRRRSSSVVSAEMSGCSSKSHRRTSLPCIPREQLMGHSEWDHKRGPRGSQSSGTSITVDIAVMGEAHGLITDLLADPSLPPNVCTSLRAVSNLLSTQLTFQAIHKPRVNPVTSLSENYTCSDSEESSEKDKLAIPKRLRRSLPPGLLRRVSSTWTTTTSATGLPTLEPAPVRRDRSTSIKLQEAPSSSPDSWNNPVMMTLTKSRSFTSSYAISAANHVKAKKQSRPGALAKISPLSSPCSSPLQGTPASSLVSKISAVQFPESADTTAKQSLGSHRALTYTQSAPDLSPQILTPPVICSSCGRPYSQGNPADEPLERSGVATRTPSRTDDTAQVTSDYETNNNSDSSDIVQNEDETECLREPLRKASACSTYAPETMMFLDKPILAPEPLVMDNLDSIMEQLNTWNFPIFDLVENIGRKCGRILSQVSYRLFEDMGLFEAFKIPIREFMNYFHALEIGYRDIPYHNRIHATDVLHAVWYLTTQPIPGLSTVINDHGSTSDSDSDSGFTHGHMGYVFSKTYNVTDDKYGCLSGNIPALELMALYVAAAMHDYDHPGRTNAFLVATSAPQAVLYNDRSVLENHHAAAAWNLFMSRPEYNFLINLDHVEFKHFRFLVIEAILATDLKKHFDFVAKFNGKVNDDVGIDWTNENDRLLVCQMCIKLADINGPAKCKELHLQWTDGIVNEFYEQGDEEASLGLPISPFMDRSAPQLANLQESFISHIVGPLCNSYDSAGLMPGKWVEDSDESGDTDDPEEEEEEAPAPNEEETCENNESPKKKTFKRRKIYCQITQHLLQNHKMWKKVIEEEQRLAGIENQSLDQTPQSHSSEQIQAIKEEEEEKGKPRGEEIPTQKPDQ
T2 sequence (Q13370 whole entry): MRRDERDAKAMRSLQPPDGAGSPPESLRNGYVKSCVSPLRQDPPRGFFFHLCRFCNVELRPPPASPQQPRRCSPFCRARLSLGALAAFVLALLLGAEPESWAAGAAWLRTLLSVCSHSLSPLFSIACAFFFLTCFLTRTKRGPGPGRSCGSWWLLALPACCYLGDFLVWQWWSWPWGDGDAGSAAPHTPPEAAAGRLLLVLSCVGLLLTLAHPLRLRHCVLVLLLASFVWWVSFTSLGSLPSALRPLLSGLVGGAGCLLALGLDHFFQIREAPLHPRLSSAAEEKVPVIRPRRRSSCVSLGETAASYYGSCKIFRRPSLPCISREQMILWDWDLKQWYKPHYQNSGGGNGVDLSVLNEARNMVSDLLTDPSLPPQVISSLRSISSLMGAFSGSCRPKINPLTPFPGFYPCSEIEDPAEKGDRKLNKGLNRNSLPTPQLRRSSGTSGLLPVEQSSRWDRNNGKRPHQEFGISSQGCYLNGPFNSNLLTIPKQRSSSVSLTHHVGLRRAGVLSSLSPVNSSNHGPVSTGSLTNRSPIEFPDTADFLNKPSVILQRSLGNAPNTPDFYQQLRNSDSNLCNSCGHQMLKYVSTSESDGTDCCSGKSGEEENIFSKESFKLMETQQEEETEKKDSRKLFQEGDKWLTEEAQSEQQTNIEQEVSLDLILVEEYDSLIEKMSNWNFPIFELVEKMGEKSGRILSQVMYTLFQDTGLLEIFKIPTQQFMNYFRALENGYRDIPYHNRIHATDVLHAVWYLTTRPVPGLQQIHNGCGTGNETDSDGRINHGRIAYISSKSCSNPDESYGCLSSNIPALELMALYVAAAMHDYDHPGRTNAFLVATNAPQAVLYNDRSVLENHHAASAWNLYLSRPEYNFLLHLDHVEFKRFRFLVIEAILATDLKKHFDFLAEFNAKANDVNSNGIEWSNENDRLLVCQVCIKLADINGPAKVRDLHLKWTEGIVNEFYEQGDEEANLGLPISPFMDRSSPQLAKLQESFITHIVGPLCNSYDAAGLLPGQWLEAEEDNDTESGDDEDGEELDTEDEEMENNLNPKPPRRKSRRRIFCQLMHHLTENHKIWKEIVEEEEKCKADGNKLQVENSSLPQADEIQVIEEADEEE

As for `Nc1ccccc1-c1ccc(C2=NNC(=O)CC2)cc1F` [Example 66, 6-(2′-amino-2-fluoro[1,1′-biphenyl]-4-yl)-4,5-dihydropyridazin-3(2H)-one], the IC50 with SK-MEL-3 (melanoma) is more than 100 nM; on human full length PDE3A, 330 nM; in test [1], more than 100 nM; at human full length PDE3B, 290 nM.

In the case of `Cc1ccncc1-c1ccc(C2=NNC(=O)CC2)cc1F` [Example 67, 6-[3-fluoro-4-(4-methylpyridin-3-yl)phenyl]-4,5-dihydropyridazin-3(2H)-one], the IC50 with SK-MEL-3 (melanoma) is 3.66 nM; at human full length PDE3A it was 56 nM; in test [1], 2.11 nM; on human full length PDE3B it was 28 nM.

`Cc1ccc(F)c(-c2ccc(C3=NNC(=O)CC3)cc2F)c1` [Example 68, 6-(2,2′-difluoro-5′-methyl[1,1′-biphenyl]-4-yl)-4,5-dihydropyridazin-3(2H)-one]: the IC50 in the test with SK-MEL-3 (melanoma) was determined as 71.2 nM; on human full length PDE3A, 160 nM; in test [1], 36.3 nM; at human full length PDE3B, 100 nM.

For the compound `O=C1CCC(c2ccc(-c3ccncc3Cl)c(F)c2)=NN1` [Example 69, 6-[4-(3-chloropyridin-4-yl)-3-fluorophenyl]-4,5-dihydropyridazin-3(2H)-one], the IC50 in the test on SK-MEL-3 (melanoma) was 38.6 nM; on human full length PDE3A, 140 nM; in test [1], 18.3 nM; on human full length PDE3B, 95 nM.

For `COc1ncccc1-c1ccc(C2=NNC(=O)CC2)cc1F` [Example 70, 6-[3-fluoro-4-(2-methoxypyridin-3-yl)phenyl]-4,5-dihydropyridazin-3(2H)-one], the IC50 worked out at 39.8 nM in the test on SK-MEL-3 (melanoma), 57 nM at human full length PDE3A, 22.9 nM in test [1] and 50 nM on human full length PDE3B.

On to `O=C1CCC(c2ccc(-c3ccc(F)nc3)c(F)c2)=NN1` [Example 71, 6-[3-fluoro-4-(6-fluoropyridin-3-yl)phenyl]-4,5-dihydropyridazin-3(2H)-one], for which the IC50 in the test with SK-MEL-3 (melanoma) was found to be 11.6 nM; on human full length PDE3A it was 120 nM; in test [1], 7.82 nM; at human full length PDE3B it was 120 nM.

Regarding `O=C1CCC(c2ccc(-c3cccnc3F)c(F)c2)=NN1` [Example 72, 6-[3-fluoro-4-(2-fluoropyridin-3-yl)phenyl]-4,5-dihydropyridazin-3(2H)-one], the IC50 with SK-MEL-3 (melanoma) turned out to be 6.25 nM; at human full length PDE3A, 39 nM; in test [1], 4.27 nM; on human full length PDE3B, 35 nM.

On to `Cc1cnccc1-c1ccc(C2=NNC(=O)CC2)cc1F` [Example 73, 6-[3-fluoro-4-(3-methylpyridin-4-yl)phenyl]-4,5-dihydropyridazin-3(2H)-one], for which the IC50 in the test with SK-MEL-3 (melanoma) was determined as 15.4 nM; on human full length PDE3A it was 52 nM; in test [1], 9.52 nM; on human full length PDE3B, 39 nM.

In the case of `O=C1CCC(c2ccc(-c3ccc4cc[nH]c4c3)c(F)c2)=NN1` [Example 74, 6-[3-fluoro-4-(1H-indol-6-yl)phenyl]-4,5-dihydropyridazin-3(2H)-one], the IC50 in the test with SK-MEL-3 (melanoma) turned out to be 21 nM; at human full length PDE3A, 110 nM; in test [1], 13.3 nM; on human full length PDE3B, 180 nM.

As for `O=C1CCC(c2ccc(-c3cccc4[nH]ccc34)c(F)c2)=NN1` [Example 75, 6-[3-fluoro-4-(1H-indol-4-yl)phenyl]-4,5-dihydropyridazin-3(2H)-one], the IC50 in the test on SK-MEL-3 (melanoma) stood at 43.5 nM; on human full length PDE3A, 100 nM; in test [1] it was 27.6 nM; at human full length PDE3B, 120 nM.

Regarding `Nc1ccc(-c2ccc(C3=NNC(=O)CC3)cc2F)cc1` [Example 76, 6-(4′-amino-2-fluoro[1,1′-biphenyl]-4-yl)-4,5-dihydropyridazin-3(2H)-one], the IC50 in the test on SK-MEL-3 (melanoma) came to 8.73 nM; on human full length PDE3A, 90 nM; in test [1] it was 5.52 nM; on human full length PDE3B, 89 nM.

Consider `Cc1ccccc1-c1ccc(C2=NNC(=O)CC2)cc1F` [Example 77, 6-(2-fluoro-2′-methyl[1,1′-biphenyl]-4-yl)-4,5-dihydropyridazin-3(2H)-one], for which the IC50 was 4.53 nM in the test on SK-MEL-3 (melanoma), 100 nM at human full length PDE3A, 2.04 nM in test [1] and 80 nM at human full length PDE3B.

As to `COc1cccc(-c2ccc(C3=NNC(=O)CC3)cc2F)c1OC` [Example 78, 6-(2-fluoro-2′,3′-dimethoxy[1,1′-biphenyl]-4-yl)-4,5-dihydropyridazin-3(2H)-one], the IC50 in the test on SK-MEL-3 (melanoma) came to 69 nM; at human full length PDE3A, 320 nM; in test [1], 53.3 nM; on human full length PDE3B, 600 nM.

In the case of `O=C1CCC(c2ccc(C3=CCCCC3)c(F)c2)=NN1` [Example 79, 6-(2-fluoro-2′,3′,4′,5′-tetrahydro[1,1′-biphenyl]-4-yl)-4,5-dihydropyridazin-3(2H)-one], the IC50 in the test on SK-MEL-3 (melanoma) is 6.15 nM; on human full length PDE3A it was 170 nM; in test [1], 4.47 nM; at human full length PDE3B, 170 nM.

For the compound `O=C1CCC(c2ccc(C3=CCCC3)c(F)c2)=NN1` [Example 80, 6-[4-(cyclopent-1-en-1-yl)-3-fluorophenyl]-4,5-dihydropyridazin-3(2H)-one], the IC50 in the test with SK-MEL-3 (melanoma) is 4.13 nM; on human full length PDE3A it was 220 nM; in test [1] it was 2.67 nM; at human full length PDE3B it was 310 nM.

For the compound `CCc1ccccc1-c1ccc(C2=NNC(=O)CC2)cc1F` [Example 81, 6-(2′-ethyl-2-fluoro[1,1′-biphenyl]-4-yl)-4,5-dihydropyridazin-3(2H)-one], the IC50 in the test on SK-MEL-3 (melanoma) worked out at 26.3 nM; at human full length PDE3A, 370 nM; in test [1] it was 13.9 nM; at human full length PDE3B it was 230 nM.

With `COc1ccc(-c2ccc(C3=NNC(=O)CC3)cc2F)cn1` [Example 82, 6-[3-fluoro-4-(6-methoxypyridin-3-yl)phenyl]-4,5-dihydropyridazin-3(2H)-one], the IC50 turned out to be 23.6 nM in the test on SK-MEL-3 (melanoma), 83 nM on human full length PDE3A, 14 nM in test [1] and 85 nM at human full length PDE3B.

Regarding `O=C1CCC(c2ccc(-c3ccc(F)c(Cl)c3)c(F)c2)=NN1` [Example 83, 6-(3′-chloro-2,4′-difluoro[1,1′-biphenyl]-4-yl)-4,5-dihydropyridazin-3(2H)-one], the IC50 is 61.8 nM in the test on SK-MEL-3 (melanoma), 560 nM at human full length PDE3A, 39.7 nM in test [1] and 280 nM on human full length PDE3B.

In the case of `Cc1cc(-c2ccc(C3=NNC(=O)CC3)cc2F)ccc1F` [Example 84, 6-(2,4′-difluoro-3′-methyl[1,1′-biphenyl]-4-yl)-4,5-dihydropyridazin-3(2H)-one], the IC50 stood at 41 nM in the test with SK-MEL-3 (melanoma), 270 nM on human full length PDE3A, 16.1 nM in test [1] and 220 nM at human full length PDE3B.

With `Cc1cccc(-c2ccc(C3=NNC(=O)CC3)cc2F)c1C` [Example 85, 6-(2-fluoro-2′,3′-dimethyl[1,1′-biphenyl]-4-yl)-4,5-dihydropyridazin-3(2H)-one], the IC50 was found to be 40.4 nM in the test on SK-MEL-3 (melanoma), 240 nM on human full length PDE3A, 18.9 nM in test [1] and 150 nM on human full length PDE3B.

Take `COc1ccc(-c2ccc(C3=NNC(=O)CC3)cc2F)cc1` [Example 86, 6-(2-fluoro-4′-methoxy[1,1′-biphenyl]-4-yl)-4,5-dihydropyridazin-3(2H)-one]: the IC50 in the test on SK-MEL-3 (melanoma) worked out at 59.8 nM; at human full length PDE3A, 280 nM; in test [1], 10.6 nM; at human full length PDE3B it was 310 nM.

As for `Cc1ccc(-c2ccc(C3=NNC(=O)CC3)cc2F)cc1` [Example 87, 6-(2-fluoro-4′-methyl[1,1′-biphenyl]-4-yl)-4,5-dihydropyridazin-3(2H)-one], the IC50 turned out to be 8.15 nM in the test on SK-MEL-3 (melanoma), 385 nM on human full length PDE3A, 3.72 nM in test [1] and 215 nM at human full length PDE3B.

In the case of `Cc1ccc(C)c(-c2ccc(C3=NNC(=O)CC3)cc2F)c1` [Example 88, 6-(2-fluoro-2′,5′-dimethyl[1,1′-biphenyl]-4-yl)-4,5-dihydropyridazin-3(2H)-one], the IC50 in the test on SK-MEL-3 (melanoma) was more than 100 nM; on human full length PDE3A it was 230 nM; in test [1], 91.6 nM; on human full length PDE3B it was 230 nM.

Take `N#Cc1ccc(F)c(-c2ccc(C3=NNC(=O)CC3)cc2F)c1` [Example 89, 2′,6-difluoro-4′-(6-oxo-1,4,5,6-tetrahydropyridazin-3-yl)[1,1′-biphenyl]-3-carbonitrile]: the IC50 in the test with SK-MEL-3 (melanoma) was more than 100 nM; on human full length PDE3A, 140 nM; in test [1] it was 74.3 nM; at human full length PDE3B, 150 nM.

With `Cc1cc(C2=NNC(=O)CC2)ccc1-c1ccnc(N)c1` [Example 90, 6-[4-(2-aminopyridin-4-yl)-3-methylphenyl]-4,5-dihydropyridazin-3(2H)-one], the IC50 in the test with SK-MEL-3 (melanoma) is more than 100 nM; on human full length PDE3A, 47 nM; in test [1], 16 nM; at human full length PDE3B it was 65 nM.

For the origin of these results see US11897867B2, “6-phenyl-4,5-dihydropyridazin-3(2H)-one derivatives as PDE3A and PDE3B inhibitors for treating cancer” (Bayer Aktiengesellschaft, priority 2017, dated 2024).
